Test results as given in PMC9029893 (International Journal of Molecular Sciences, 2022).

Key:
HUVEC cells [1] = test: Glucose utilization assay (2-NBDG uptake); format: cell-based, human; details: 24 h, then insulin and 2-NBDG
Method: HUVEC were seeded at a density of 20,000 cells per well in 48-well plates, and were cultured in standard conditions for 24 h (medium EGM-2; volume 0.2 mL). Following this, compounds 1–8 were added at concentrations of 0.1 and 0.3 mM, and the HUVECs were incubated for another 24 h. Cells treated with ᴅ-glucose (final concentration in a sample 0.1 mM) were used as positive controls. On the following day, the cells were rinsed with PBS (Biomed Lublin, Lublin, Poland) and cultured for two hours in glucose-free DMEM medium supplemented with 1% BSA (bovine serum albumin, Sigma, St. Louis, MO, USA). Then, the cells were co-treated with insulin (final concentration 0.0001 mM) for 30 min. Afterwards, the medium was discarded and the cells were treated with 2-NBDG (final concentration 0.05 mM) for 30 min, followed by removal of the solutions of each well. The cells were washed twice with 100 µL PBS, and lysed using 1% Triton X-100 solution in PBS. The fluorescence was recorded using a microplate reader (Biotek, Instruments, Winooski, VT, USA) at 480/530 nm.
The concentration of intracellular 2-NBDG was calculated using a calibration curve obtained using 2-NBDG at concentrations ranging from 0.0001 to 0.025 mM in lysis buffer. The results are presented as mean ± SD, n = 4–6. The coefficient of variation for the assay was calculated (CV = 2.2%, n = 8).

AoSMC cells [2] = test: WST-1 cell viability assay, AoSMC; details: Homo sapiens, 24 h, read-out: Viability-IC50, AoSMC cells
Method: (§1) HUVEC and AoSMC viability were tested using the WST-1 cell viability assay (Takara Bio Europe, Saint-Germain-en-Laye, France). […] Briefly, HUVEC and AoSMC were seeded at densities of 7500 and 5000 cells per well on 96-well plates. The cells were cultivated for up to 24 h to achieve 70% confluency, and subsequently treated with tested compounds diluted in medium (1 + 9; v = 100 μL) or pure medium (control). The plates were incubated at 37 °C (5% CO2) for the next 24 h. Then, the cells were rinsed with 100 μL culture medium, and WST-1 reagent diluted in medium (100 μL) was added; the plates were then incubated again (37 °C, 5% CO2) for another 90 min. The absorbance was measured at 450 nm (iMARK, Bio-Rad, Hercules, CA, USA). The experiments were performed in multiplicate (n = 8) and the results were presented as mean ± SD. The cell viability was expressed as a percentage of the control samples, which constituted 100% viability. […] The variability coefficient of the method was estimated (CV(HUVEC) = 8.94%, n = 8; CV(AoSMC) = 5.84%, n = 10).

HUVEC cells [3] = test: WST-1 cell viability assay, HUVEC; details: Homo sapiens, HUVEC, 24 h, read-out: Viability-IC50, HUVEC cells
Method: as §1

HUVEC cells [4] = test: HUVEC integrity in RTCA-DP system (normalized cell index); format: cell-based, human
Method: The effects of sulfonamides 1–8 on the integrity and barrier properties of HUVEC were examined in real-time using a cell electric impedance monitoring system (Real-Time Cell Analyzer; Roche & ACEA Biosciences, Santa Clara, CA, USA), which is based on tracking electrical impedance signals. Any changes in cell status, adhesion, and morphology are expressed by parameter Cell Index (CI). The experimental protocol has been described previously. Briefly, the cells were seeded at a density of 15,000 cells per well on E-16 plates (Roche & ACEA Biosciences, Santa Clara, CA, USA), and cultured until the cells achieved plateau phase. Then, the medium was discarded from each well, and the solutions of the test compounds dissolved in cell culturing medium (100 μL) or pure medium (100 μL, control) were added. The measurements were then carried out for 48 h. The results are presented as mean ± SD of ‘normalized cell index’ (nCI), which is calculated by the division of a CI value at a certain time point by the CI value at a reference time point. The experiments were conducted in multiplicate (n = 4–6). The method was validated and the coefficient of variability (CV) was calculated as 9.17%–15.2%, depending on the measured time point (n = 6).

HUVEC cells [5] = details: 0.006–1.5 mM; cited from earlier work
HUVEC cells [6] = test: HUVEC migration, wound-healing assay (JuLI Stage); format: cell-based, human
Method: The effects of compounds 1–5 on HUVEC migration were determined using the JuLI™ Stage system (NanoEntek, Seoul, Korea): a real-time cell history recorder allowing for live cell imaging and analysis. The procedure for the migration experiments has been published elsewhere in more detail. Concisely, HUVECs were seeded at a density of 10,000 cells per well on 96-well plates and incubated at standard conditions for 24 h. Following this, a wound was made with a scratcher (NanoEntek, Seoul, Korea). The cells were then rinsed with 100 μL of fresh EGM2 medium, and treated with biguanides 1–5 at the concentrations of 0.3 and 1.0 mM. The cells were incubated and monitored continuously every 10 min for 36 h at 37 °C, 5% CO2. Analysis of obtained images of cell migration, and measurements of the width of the scratch area were performed using dedicated software (NanoEntek, Seoul, Korea). The results were presented as mean ± SD, n = 4–8. The CV for the method was estimated as 14.2–24.4%, depending on the time point (n = 8).

HUVEC cells [7] = details: cited from earlier work
[8] = system: tissue plasminogen activator (t-PA) release from HUVEC; details: cited from earlier work
AoSMC cells [9] = details: cited from earlier work
[10] = system: clot formation and fibrinolysis in human citrate plasma; details: over the entire concentration range; cited from earlier work

Structure (SMILES)	Glucose uptake (intracellular 2-NBDG) (HUVEC cells [1]; 0.1 mM)	Glucose uptake (intracellular 2-NBDG) (HUVEC cells [1]; 0.3 mM)	IC50 (AoSMC cells [2])	IC50 (HUVEC cells [3])	normalized Cell Index (nCI) (HUVEC cells [4]; 0.3 mM, 3 hours)	normalized Cell Index (nCI) (HUVEC cells [4]; 0.3 mM, 6 hours)	normalized Cell Index (nCI) (HUVEC cells [4]; 0.3 mM, 12 hours)	normalized Cell Index (nCI) (HUVEC cells [4]; 0.3 mM, 24 hours)	normalized Cell Index (nCI) (HUVEC cells [4]; 0.3 mM, 36 hours)	normalized Cell Index (nCI) (HUVEC cells [4]; 1.0 mM, 3 hours)	normalized Cell Index (nCI) (HUVEC cells [4]; 1.0 mM, 6 hours)	normalized Cell Index (nCI) (HUVEC cells [4]; 1.0 mM, 12 hours)	normalized Cell Index (nCI) (HUVEC cells [4]; 1.0 mM, 24 hours)	normalized Cell Index (nCI) (HUVEC cells [4]; 1.0 mM, 36 hours)	other results
CN(C)C(=N)N=C(N)NS(=O)(=O)c1ccccc1C#N [Compound 6]	0.0128 ± 0.0007 mM	0.0129 ± 0.0007 mM	1680 ± 210 µM	461 ± 130 µM	0.317 ± 0.050	0.424 ± 0.053	0.388 ± 0.07	0.280 ± 0.018	0.111 ± 0.026	0.010 ± 0.003	0.016 ± 0.005	0.019 ± 0.005	0.013 ± 0.003	0.009 ± 0.003	–
CN(C)C(=N)N=C(N)NS(=O)(=O)c1cccc(C#N)c1 [Compound 7]	0.0131 ± 0.0013 mM	0.0139 ± 0.001 mM	1890 ± 160 µM	304 ± 120 µM	0.283 ± 0.050	0.367 ± 0.027	0.333 ± 0.030	0.255 ± 0.26	0.094 ± 0.014	0.013 ± 0.004	0.018 ± 0.001	0.020 ± 0.001	0.016 ± 0.002	0.013 ± 0.003	–
CN(C)C(=N)N=C(N)NS(=O)(=O)c1ccc(C#N)cc1 [Compound 8]	0.0131 ± 0.0009 mM	0.0138 ± 0.0015 mM	1570 ± 140 µM	791 ± 130 µM	0.312 ± 0.087	0.461 ± 0.015	0.416 ± 0.062	0.321 ± 0.038	0.198 ± 0.055	0.006 ± 0.004	0.029 ± 0.006	0.021 ± 0.004	0.001 ± 0.001	0.001 ± 0.001	–
OC[C@H]1OC(O)[C@H](O)[C@@H](O)[C@@H]1O (stereo partly drawn) [D-glucose, reference compound]	0.0014 ± 0.0001 mM	–	–	–	–	–	–	–	–	–	–	–	–	–	–
CN(C)C(=N)N=C(N)N [Metformin, dimethyl biguanide, reference compound]	0.0146 ± 0.0009 mM	0.0165 ± 0.0006 mM	–	–	–	–	–	–	–	–	–	–	–	–	effect on integrity and adherence of HUVEC cells (HUVEC cells [5]): not found to affect; wound width (HUVEC cells [6]; 0.3 mM, 6 hours): 570.1 ± 119.9 µm; wound width (HUVEC cells [6]; 0.3 mM, 12 hours): 467.8 ± 106.5 µm; wound width (HUVEC cells [6]; 0.3 mM, 18 hours): 412.1 ± 121.8 µm; wound width (HUVEC cells [6]; 0.3 mM, 24 hours): 405.0 ± 120.7 µm; wound width (HUVEC cells [6]; 0.3 mM, Start): 728.6 ± 62.5 µm; wound width (HUVEC cells [6]; 1.0 mM, 6 hours): 565.4 ± 31.5 µm; wound width (HUVEC cells [6]; 1.0 mM, 12 hours): 495.7 ± 20.0 µm; wound width (HUVEC cells [6]; 1.0 mM, 18 hours): 482.7 ± 10.0 µm; wound width (HUVEC cells [6]; 1.0 mM, 24 hours): 419.8 ± 42.3 µm; wound width (HUVEC cells [6]; 1.0 mM, Start): 670.4 ± 29.2 µm; effect on viability and morphology of HUVEC cells (HUVEC cells [7]): not affect; effect on t-PA release [8]: significantly elevate; effect on viability and morphology of AoSMC cells (AoSMC cells [9]): not affect; effect on overall potential of clot formation and fibrinolysis (CLAUC) [10]: did not affect
